Type in all cases: cell-based
Experiment [1] addresses T1, KRAS G12D (Homo sapiens, UniProt P01116, G12D).
T1 construct: host or cells: AsPC-1 (human pancreatic cancer line)
Nature of the experiment: KRAS degradation activity by Cell ELISA in AsPC-1 cells (Test Example 1). The settings on record: for Dmax: ASPC1, overnight treatment, read-out: Dmax (degradation rate at the concentration showing highest degradation); for Dmax / DC50: Cell ELISA; for DC50: overnight treatment, read-out: DC50 (50% degradation concentration of KRAS). In short, it runs like this:
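AsPC-1 cells (2.0×10^4/well) treated overnight with compounds at 10 μM–0.3 nM (10 points), then fixed, permeabilised and stained for KRAS G12D (800 nm) and β-actin (700 nm) by in-cell ELISA. KRAS signal normalised to β-actin, DMSO set as 0% and actin-only staining as 100%; DC50 from Sigmoid-Emax regression up to Dmax.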
Background: ELISA stands for enzyme-linked immunosorbent assay.

Experiment [2] relates to phosphorylation of ERK (Thr202/Tyr204). Briefly: ERK phosphorylation inhibitory effect by Cell ELISA in AsPC-1 cells (Test Example 2). As to conditions: Homo sapiens, ASPC1, overnight treatment, Cell ELISA, read-out: IC50 (ERK phosphorylation inhibition). In a few lines:
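AsPC-1 cells (2.0×10^4/well, RPMI 1640 + 10% FBS) treated overnight with compounds (10 points, 10 μM to 0.3 nM final), then glyoxal-fixed and immunostained for phospho-ERK with IRDye 800CW secondary; 800-nm fluorescence read. IC50 by Sigmoid-Emax regression, normalized to DMSO (100%) and 1 μM trametinib (0%).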

Experiment [3] deals with human G12D mutant KRAS-positive pancreatic cancer line AsPC-1. Briefly: Non-anchorage-dependent cell growth inhibitory effect, spheroid 3D culture (Test Example 3). As to conditions: ASPC1, 144 h, AsPC-1 spheroid 3D culture, 6 days; for pIC50: CellTiter Glo 2.0, read-out: IC50 (non-anchorage-dependent cell growth inhibition). In a few lines:
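AsPC-1 cells grown as spheroids in RPMI 1640 with 10% FBS at 37° C, 5% CO2, then exposed to compounds (10 μM to 0.3 nM final) for 6 days. Viability read by CellTiter Glo 2.0 luminescence. IC50 from Sigmoid-Emax regression with DMSO as 100% and cell-free medium as 0%.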

pIC50: −log10 of the molar value. Where a name gives a salt, the structure may show the parent alone.

T1 sequence (P01116 1-188 isoform P01116-2 G12D): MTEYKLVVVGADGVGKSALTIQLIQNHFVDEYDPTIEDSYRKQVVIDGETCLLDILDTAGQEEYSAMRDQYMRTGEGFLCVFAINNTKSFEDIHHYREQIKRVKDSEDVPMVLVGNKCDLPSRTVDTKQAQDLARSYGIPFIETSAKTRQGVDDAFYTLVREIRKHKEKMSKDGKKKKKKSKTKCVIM

With `Cc1c(F)cc2[nH]ncc2c1-c1c(C2CC2)cc2c(N3C[C@@H]4C[C@H]3CN4)nc(OC3CCOCC3)nc2c1OCc1ccc(C(=O)N2CCN(Cc3ccc4c(N5CCC(=O)NC5=O)n(C)nc4c3)C[C@@H]2C)cc1` (atropisomer, axis not shown) [Example 22], in experiment [1], the Dmax is 84% and the DC50 stood at 114 nM. The pIC50 in experiment [2] is 6.55. Also, in experiment [3], the pIC50 was 6.89.
For the compound `Cc1c(F)cc2[nH]ncc2c1-c1c(C2CC2)cc2c(N3C[C@@H]4C[C@H]3CN4)nc(OC3CCOCC3)nc2c1OCc1ccc(C(=O)N2CCN(Cc3ccc4c(c3)c(N3CCC(=O)NC3=O)nn4C)C[C@@H]2C)cc1` (atropisomer, axis not shown) [Example 27], the Dmax in experiment [1] is 25%. Also, the “degradation rate at the highest concentration evaluated (printed in DC50 column)” value in experiment [1] (at 10 μM) stood at 25% at 10 μM. The pIC50 was 5.56 in experiment [2] and 5.72 in experiment [3].
With `Cc1c(F)cc2[nH]ncc2c1-c1c(C2CC2)cc2c(N3C[C@@H]4C[C@H]3CN4)nc(OC3CCOCC3)nc2c1OCc1ccc(C(=O)N2CCC(CN3CCN(c4cc5c(cc4F)C(=O)N(C4CCC(=O)NC4=O)C5=O)CC3)CC2)cc1` (some centres unmarked) [Example 2], in experiment [1], the Dmax is 59% and the DC50 turned out to be 4900 nM. Besides, the pIC50 in experiment [2] is 5.32. Besides, the inhibition at 10 µM in experiment [3] (at 10 μM, read-out: cell growth inhibition at the highest concentration evaluated) came out at 55%.
Consider `Cc1c(F)cc2[nH]ncc2c1-c1c(C2CC2)cc2c(O[C@H]3CCNC3)cc(OC[C@H]3CCCO3)nc2c1OCc1ccc(C(=O)N2CCN(Cc3ccc4c(c3)n(C)c(=O)n4C3CCC(=O)NC3=O)C[C@@H]2C)cc1` (atropisomer, axis not shown) [Example 32], for which, in experiment [1], the Dmax was determined as 78% and the DC50 stood at 46 nM. For the same compound, in experiment [2], the pIC50 is 7.16. In experiment [3], the pIC50 was 7.22.
Regarding `CO[C@@H](C)COc1nc(N(C)[C@@H]2CCNC2)c2cc(C3CC3)c(-c3c(C)c(F)cc4[nH]ncc34)c(OCc3ccc(C(=O)N4CCN(Cc5ccc6c(c5)n(C)c(=O)n6C5CCC(=O)NC5=O)C[C@@H]4C)cc3)c2n1` (some centres unmarked) [Example 35], in experiment [1], the Dmax turned out to be 48% and the DC50 was 3670 nM. In experiment [2], the pIC50 is 5.82. In addition, the pIC50 in experiment [3] is 5.95.
For the compound `Cc1c(F)cc2[nH]ncc2c1-c1c(C2CC2)cc2c(N3C[C@@H]4C[C@H]3CN4)nc(OC3CCOCC3)nc2c1OCc1ccc(C(=O)N2CCN(Cc3ccc4c(n3)n(C)c(=O)n4C3CCC(=O)NC3=O)CC2)cc1` (some centres unmarked) [Example 11], in experiment [1], the Dmax is 84% and the DC50 came out at 58 nM. Moreover, in experiment [2], the pIC50 was 7.23. Also, in experiment [3], the pIC50 is 6.85.
Turning to `Cc1c(F)cc2[nH]ncc2c1-c1c(C2CC2)cc2c(N3C[C@@H]4C[C@H]3CN4)nc(OC3CCOCC3)nc2c1OCc1ccc(C(=O)N2CCN(Cc3cccc4c(N5CCC(=O)NC5=O)nn(C)c34)CC2)cc1` (atropisomer, axis not shown) [Example 23], the Dmax in experiment [1] turned out to be 61%. Moreover, the DC50 in experiment [1] was 2810 nM. The results for the pIC50 in experiment [2] and in experiment [3] were 5.81 and 5.96, respectively.
On the same counts, the results for `Cc1c(F)cc2[nH]ncc2c1-c1c(C2CC2)cc2c(N3C[C@@H]4C[C@H]3CN4)nc(OC3CCOCC3)nc2c1OCc1ccc(C(=O)N2CCN(Cc3ccc4c(N5CCC(=O)NC5=O)nn(C)c4c3)C[C@@H]2C)cc1` (atropisomer, axis not shown; (M)) [Example 16, 1-(6-{[(3S)-4-{4-[({(7M)-6-cyclopropyl-4-[(1S,4S)-2,5-diazabicyclo[2.2.1]heptan-2-yl]-7-(6-fluoro-5-methyl-1H-indazol-4-yl)-2-[(oxan-4-yl)oxy]quinazolin-8-yl}oxy)methyl]benzoyl}-3-methylpiperazin-1-yl]methyl}-1-methyl-1H-indazol-3-yl)-1,3-diazinane-2,4-dione n hydrochloride] are 86%, 71 nM, 6.80 and 7.14.
As for `Cc1c(F)cc2[nH]ncc2c1-c1c(C2CC2)cc2c(N3C[C@@H]4C[C@H]3CN4)nc(OC3CCOCC3)nc2c1OCc1ccc(C(=O)N2CCC(CNc3cccc4c3C(=O)N(C3CCC(=O)NC3=O)C4=O)CC2)cc1` (some centres unmarked) [Example 30], in experiment [1], the Dmax came to 71%. The DC50 in experiment [1] came to 1480 nM. The pIC50 in experiment [2] is 5.89; in experiment [3], 5.84.
For `CO[C@H](C)COc1cc(O[C@H]2CCNC2)c2cc(C3CC3)c(-c3c(C)c(F)cc4[nH]ncc34)c(OCc3ccc(C(=O)N4CCN(Cc5ccc6c(c5)n(C)c(=O)n6C5CCC(=O)NC5=O)C[C@@H]4C)cc3)c2n1` (some centres unmarked) [Example 44], in experiment [1], the Dmax came out at 74% and the DC50 was 41 nM. In addition, in experiment [2], the pIC50 was 7.16. The pIC50 in experiment [3] is 6.91.
Regarding `CC[C@H]1CN(Cc2ccc3c(N4CCC(=O)NC4=O)nn(C)c3c2)CCN1C(=O)c1ccc(COc2c(-c3c(C)c(F)cc4[nH]ncc34)c(C3CC3)cc3c(N4C[C@@H]5C[C@H]4CN5)nc(OC4CCOCC4)nc23)cc1` (atropisomer, axis not shown) [Example 25], the Dmax in experiment [1] came out at 70%. For the same compound, in experiment [1], the DC50 turned out to be 856 nM. Also, the figures for the pIC50 in experiment [2] and in experiment [3] were 6.18 and 6.34, respectively.
In the case of `CO[C@H](C)COc1nc(N2C[C@@H]3C[C@H]2CN3)c2cc(C3CC3)c(-c3c(C)c(F)cc4[nH]ncc34)c(OCc3ccc(C(=O)N4CCN(Cc5ccc6c(c5)n(C)c(=O)n6C5CCC(=O)NC5=O)C[C@@H]4C)cc3)c2n1` (some centres unmarked) [Example 38], in experiment [1], the Dmax turned out to be 86% and the DC50 is 22 nM. The pIC50 in experiment [2] was 7.51. The pIC50 in experiment [3] was 7.29.
On the same counts, the results for `Cc1c(F)cc2[nH]ncc2c1-c1c(C2CC2)cc2c(N3C[C@@H]4C[C@H]3CN4)nc(OC3CCOCC3)nc2c1OCc1ccc(C(=O)N2CCN(Cc3ccc4c(c3)oc(=O)n4C3CCC(=O)NC3=O)CC2)cc1` (some centres unmarked) [Example 3] are 83%, 53 nM, 7.03 and 6.92.
For `Cc1c(F)cc2[nH]ncc2c1-c1c(C2CC2)cc2c(N3C[C@@H]4C[C@H]3CN4)nc(OC3CCOCC3)nc2c1OCc1ccc(C(=O)N2CCN(Cc3ccc(CN4CCC(=O)NC4=O)cc3F)C[C@@H]2C)cc1` (atropisomer, axis not shown) [Example 26], in experiment [1], the Dmax was determined as 67% and the DC50 was determined as 5220 nM. Besides, the pIC50 in experiment [2] was 5.69. The pIC50 in experiment [3] was 5.87.
As to `Cc1c(F)cc2[nH]ncc2c1-c1c(C2CC2)cc2c(N3C[C@@H]4C[C@H]3CN4)nc(OC3CCOCC3)nc2c1OCc1ccc(C(=O)N2CCN(Cc3ccn4c(N5CCC(=O)NC5=O)cnc4c3)C[C@@H]2C)cc1` (atropisomer, axis not shown; (M)) [Example 34, 1-(7-{[(3S)-4-{4-[({(7M)-6-cyclopropyl-4-[(1S,4S)-2,5-diazabicyclo[2.2.1]heptan-2-yl]-7-(6-fluoro-5-methyl-1H-indazol-4-yl)-2-[(oxan-4-yl)oxy]quinazolin-8-yl}oxy)methyl]benzoyl}-3-methylpiperazin-1-yl]methyl}imidazo[1,2-a]pyridin-3-yl)-1,3-diazinane-2,4-dione], in experiment [1], the Dmax was determined as 85% and the DC50 came to 202 nM. Besides, in experiment [2], the pIC50 is 6.70. Moreover, the pIC50 in experiment [3] is 6.32.
Regarding `Cc1c(F)cc2[nH]ncc2c1-c1c(C2CC2)cc2c(N3C[C@@H]4C[C@H]3CN4)nc(O[C@@H]3CCOC3)nc2c1OCc1ccc(C(=O)N2CCN(Cc3ccc4c(c3)n(C)c(=O)n4C3CCC(=O)NC3=O)C[C@@H]2C)cc1` (some centres unmarked) [Example 36], in experiment [1], the Dmax came to 80% and the DC50 worked out at 79 nM. Further, the pIC50 in experiment [2] was 7.11. For the same compound, the pIC50 in experiment [3] was 6.80.
Taken in the same sequence, the figures for `Cc1c(F)cc2[nH]ncc2c1-c1c(C2CC2)cc2c(N3C[C@@H]4C[C@H]3CN4)nc(OC3CCOCC3)nc2c1OCc1ccc(C(=O)N2CCN(CCOc3cccc(N4CCC(=O)NC4=O)c3)CC2)cc1` (atropisomer, axis not shown) [Example 28] were 54%, 5530 nM, 5.66 and 5.70.

The pIC50 is the negative decadic logarithm of the IC50, by convention in mol/L.
